Assay results: US20080145465A1, “Sesquiterpene lactone extract from artemisia leucodes for reducing inflammation and down-regulating pro-inflammatory gene expression” (priority 2006, published 2008)
Values after ≈ are worked out from the molar mass of the structure shown. “Also recorded” adds a separate entry of the source. Read-outs that look alike come from different tables or passages of the source.

Tests used:
IL1β = test: Quantitative real-time RT-PCR: IL1β gene expression in LPS-elicited RAW 264.7 macrophages; assay type: cell-based, murine; conditions: for IL1β gene expression (LPS control = 100; values less than 100 represent inhibition): Table 4 experiment; for effect on IL1β gene expression (in words): LPS-elicited RAW macrophages
Procedure: (§1) RAW 264.7 murine monocyte/macrophages (ATCC TIB-71) were maintained in Dulbecco's Modified Eagle Medium (D-MEM, Invitrogen Corp., Carlsbad, Calif.) supplemented with 10% fetal bovine serum (FBS, Invitrogen Corp., Carlsbad, Calif.) and 1% streptomycin and were kept in a humidified 37° C. incubator with 5% CO2. Cells were subcultured by scraping when plates reached 90% confluency with a 1:5 ratio.
(§2) Murine RAW macrophages 264.7 were plated at a density of 0.4×10^6 cells per well in 24-well plates 12 hours prior to treatment. A stock solution of AL-1 was created by completely dissolving the dry extract as in Example 1 in 95% ethanol. Two hours before elicitation with lipopolysaccharide (LPS, 1 μg/ml, Sigma, St. Louis, Mo.) the cells were treated with various concentrations of AL-1 (25-200 μg/ml) or vehicle control, maintaining a final concentration of 0.5% ethanol for all treatments. After six hours of treatment, RNA was extracted from cells using TRIzol® reagent (Invitrogen Corp., Carlsbad, Calif.) according to the manufacturer instructions. RNAs were quantified spectrophotometrically at 260 nm and stored at −80° C. until real-time PCR could be performed.
(§3) RNA was purified by treating with DnaseI (Invitrogen Corp., Carlsbad, Calif.) before performing reverse transcription with Stratascript Reverse Transcriptase, an RNA dependent DNA polymerase (Stratagene, La Jolla, Calif.) according to the manufacturer instructions. The cDNAs obtained were then amplified by real-time PCR. Expression of COX-2, iNOS, IL1β and β-actin gene expression levels was quantified using a Stratagene Mx 3000P™ Real-Time PCR System (Stratagene, La Jolla, Calif.). Primers for each gene were designed using Primer Express® version 2.0 software (Applied Biosystems, Foster City, Calif.; Table 2) (Giulietti et al., 2001; Overbergh et al., 2003).
(§4) Real-time PCR analyses were carried out using a Brilliant® SYBR® Green PCR master mix kit (Stratagene, La Jolla, Calif.) according to kit instructions. Samples were amplified using the following program: two minutes incubation at 50° C.; initial denaturation and polymerase activation at 95° C. for ten minutes; 40 PCR cycles consisting of 15 seconds at 95° C. and 60 seconds at 60° C. each. The RNA expression of the target genes were analyzed by ΔΔCT methods (Winer et al., 1999) using β-Actin gene as normalizer. The ΔΔCT values obtained from these analyses directly reflect the relative mRNA quantities for the marker gene in response to specific treatments. Lower ΔΔCT values indicate greater anti-inflammatory activity. The changes in gene expression as reflected by ΔΔCT values can also be expressed as percentage genetic inhibition [(1−ΔΔCT)×100] indicating anti-inflammatory properties of the test compounds. Amplification of specific transcripts was further confirmed by obtaining melting curve profiles. All samples were run in duplicate; four independent analyses were performed.

iNOS = test: Quantitative real-time RT-PCR: iNOS gene expression in LPS-elicited RAW 264.7 macrophages; assay type: cell-based, murine; conditions: for iNOS gene expression (LPS control = 100; values less than 100 represent inhibition): Table 4 experiment
Procedure: as §1, §2, §3, §4

COX-2 = target: T1, COX-2 (Ovis aries, UniProt P79208); test: Colorimetric COX inhibitor screening assay, COX-2; assay type: biochemical, ovine
T1 construct: purchased Cayman Chemical Company
T1 sequence (P79208 17-603): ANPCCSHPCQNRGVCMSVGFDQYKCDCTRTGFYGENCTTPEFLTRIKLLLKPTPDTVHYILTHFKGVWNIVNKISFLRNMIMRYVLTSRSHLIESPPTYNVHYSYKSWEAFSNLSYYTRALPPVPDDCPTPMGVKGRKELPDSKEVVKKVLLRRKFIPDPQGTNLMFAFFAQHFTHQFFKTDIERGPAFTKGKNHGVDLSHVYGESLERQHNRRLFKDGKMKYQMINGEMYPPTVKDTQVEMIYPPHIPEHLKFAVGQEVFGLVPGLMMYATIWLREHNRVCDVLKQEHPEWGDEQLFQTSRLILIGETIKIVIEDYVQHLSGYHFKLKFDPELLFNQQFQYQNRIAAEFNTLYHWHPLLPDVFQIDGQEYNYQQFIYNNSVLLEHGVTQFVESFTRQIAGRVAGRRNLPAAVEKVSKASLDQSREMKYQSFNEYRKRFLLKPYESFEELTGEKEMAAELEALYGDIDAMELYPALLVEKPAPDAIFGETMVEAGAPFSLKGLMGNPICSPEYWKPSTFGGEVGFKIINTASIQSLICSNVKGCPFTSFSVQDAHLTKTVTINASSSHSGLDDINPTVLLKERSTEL
Procedure: An ovine COX inhibitor screening assay (Cayman Chemical Company, Ann Arbor, Mich.) was used to measure inhibition of purified COX-1 and COX-2. This assay measures the peroxidase component of cyclooxygenases colorimetrically by monitoring the appearance of oxidized N,N,N′,N′-tetramethyl-p-phenylenediamine (TMPD) at 590 nm. Tablets of Vioxx (rofecoxib; Merck & Co., Inc., Whitehouse Station, N.J.) were ground and dissolved in methanol (1 mg/mL) to use as a positive control. AL-1, leukomisin, and austricin were also dissolved in methanol at 1 mg/mL. The assay was performed following manufacturer instructions. Vioxx, vehicle (100% initial activity), or treatments were added to a 96-well plate along with 180 μL assay mixture provided by the manufacturer containing 150 μL assay buffer, 10 μL heme, and 10 μL enzyme (COX-1 or COX-2). A background correction row received no enzyme and 10 μL additional assay buffer. After 5 min incubation at room temp, 20 μL of a colorimetric substrate solution containing TMPD and 20 μL arachadonic acid diluted in assay buffer were added to the plate. The plate was incubated for 5 min and the absorbance was read at 590 nm using a microplate reader (Molecular Devices, Sunnyvale, Calif.). To calculate percent inhibition, average absorbance was calculated for each sample (n=3). The background blank well absorbance was subtracted from each sample.
[(100% Initial activity-Blank)−(Treatment-Blank)/(100% Initial activity-Blank)]*100

[1] = read-out: percent inhibition of COX-2 enzyme activity, mean ± SE

SMILES | IL1β gene expression (LPS control = 100; values less than 100 represent inhibition) (IL1β; 25 μg) | IL1β gene expression (LPS control = 100; values less than 100 represent inhibition) (IL1β; 50 μg) | IL1β gene expression (LPS control = 100; values less than 100 represent inhibition) (IL1β; 75 μg) | effect on IL1β gene expression (in words) (IL1β) | iNOS gene expression (LPS control = 100; values less than 100 represent inhibition) (iNOS; 25 μg) | iNOS gene expression (LPS control = 100; values less than 100 represent inhibition) (iNOS; 50 μg) | iNOS gene expression (LPS control = 100; values less than 100 represent inhibition) (iNOS; 75 μg) | effect on iNOS gene expression (in words) (iNOS; LPS-elicited RAW macrophages) | percent inhibition of COX-2 enzyme activity, mean ± SE (COX-2; 45 μg/ml) [%] | percent inhibition of COX-2 enzyme activity, mean ± SE (COX-2; 115 μg/ml) [%] | percent inhibition of COX-2 enzyme activity, mean ± SE (COX-2; 225 μg/ml) [%] | IC50, COX-2 inhibition (COX-2; purified ovine COX-2) [µg/mL] | IC50 (COX-2; purified ovine COX-2, read-out: IC50, COX-2 inhibition) [µM] | IC50 (COX-2; IC50, COX-2 inhibition, purified ovine COX-2) [µM] | IC50 (COX-2; IC50, COX-2 inhibition, purified ovine COX-2, molar value in brackets) [µM] | inhibition at 45 µg/mL (COX-2; [1]) [%] | inhibition at 115 µg/mL (COX-2; [1]) [%] | inhibition at 225 µg/mL (COX-2; [1]) [%]
CC1=CC(=O)C2=C(C)CC[C@@H]3[C@H](OC(=O)[C@H]3C)[C@@H]12 [leukomisin] | 110 | 161 | 281 | no affect on gene expression; also recorded: no activity | 127 | 151 | 126 | no affect on gene expression; also recorded: no activity | 34 ± 1 | 51 ± 3 | 65 ± 5 | 129 (≈ 524 µM) | 524 | – | – | – | – | –
CC1=CC(=O)C2=C(C)C[C@H](O)[C@@H]3[C@H](OC(=O)[C@H]3C)[C@@H]12 (single isomer, unassigned) [austricin] | 58 | 65 | 65 | only marginal activity | 102 | 108 | 113 | – | – | – | – | – | – | 1970 | 2000 | 19 ± 1 | 29 ± 2 | 31 ± 1
